Test results: PubChem BioAssay AID624167 (Sanford-Burnham Center for Chemical Genomics, 2012)
Active and inactive are the calls of the source.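 Rule for the calls: active = mean IC50 for reducing PEG3 promoter reporter signal at or below a set limit, with IC50 above the limit in both counter screens; inactive = the rest, including counter screen hits.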

How the values were obtained:
PEG-3 [1] = biological target: PEG-3 (UniProt Q6IN02); assay: inhibition of PEG-3 promoter-driven reporter – cell-based, HeLa, luciferase, CREF/GAPDH counter-screen panel, dose response (AID 624167); details: HeLa PEG-Prom luciferase reporter, overnight, CREF/GAPDH counter-screens, mean of runs
Sequence of PEG-3 (UniProt Q6IN02) (Q6IN02 whole entry, looked up): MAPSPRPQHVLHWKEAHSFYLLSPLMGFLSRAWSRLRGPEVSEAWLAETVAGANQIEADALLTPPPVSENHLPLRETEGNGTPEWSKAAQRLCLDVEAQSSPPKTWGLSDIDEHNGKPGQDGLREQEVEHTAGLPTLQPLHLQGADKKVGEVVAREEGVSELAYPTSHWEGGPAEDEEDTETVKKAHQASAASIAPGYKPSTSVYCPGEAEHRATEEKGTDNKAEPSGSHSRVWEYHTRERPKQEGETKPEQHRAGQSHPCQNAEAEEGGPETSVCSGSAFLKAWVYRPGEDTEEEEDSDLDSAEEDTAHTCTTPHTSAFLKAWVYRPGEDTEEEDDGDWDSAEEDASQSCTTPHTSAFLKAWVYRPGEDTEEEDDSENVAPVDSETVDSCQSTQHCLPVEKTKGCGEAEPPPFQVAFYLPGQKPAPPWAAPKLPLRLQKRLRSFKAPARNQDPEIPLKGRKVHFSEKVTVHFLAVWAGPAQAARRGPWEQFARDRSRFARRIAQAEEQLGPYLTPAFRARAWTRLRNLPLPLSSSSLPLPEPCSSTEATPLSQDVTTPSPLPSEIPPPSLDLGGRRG

PEG-3 [2] = assay: as above; details: HeLa PEG-Prom luciferase reporter, overnight, CREF/GAPDH counter-screens
[3] = run 1, dose range 1, individual replicate IC50 per panel
[4] = run 2, dose range 1, individual replicate IC50 per panel

Compound | IC50 (PEG-3 [1]) | IC50 (PEG-3 [2]; [3]) | IC50 (PEG-3 [2]; [4])
CCCOc1ccc(NC(=O)CC2C(=O)N(CC)C(=S)N2CCCN2CCN(Cc3ccccc3)CC2)cc1 (centres undefined) | 18.9 µM | 20.6 µM | 17.2 µM
COc1ccc(-c2oc3ccc(-c4cc(OC)c(OC)c(OC)c4)cc3c2C#Cc2ccccn2)cc1 | 12.2 µM | 2.89 µM | 21.5 µM
CCN(CC)CCn1c2ccccc2c2cnc(N)c(C#N)c21 | 12.1 µM | 11.3 µM | 12.9 µM
CN(Cc1ccccc1F)C(=O)C(Cc1ccccc1)NC(=O)c1ccccc1 (centres undefined) | inactive | 32.3 µM | 95.6 µM
Cc1cccc(N2CCN(C(=O)C3CCN(c4ncnc5c4nc4n5CCCCC4)CC3)CC2)c1C | inactive | 30.2 µM | 18.3 µM
Cc1cc(C(=O)COC(=O)c2ccccc2Br)c(C)n1CC1CCCO1 (centres undefined) | inactive | 3.07 µM | 98.5 µM
Oc1cccc(C(Nc2nccs2)c2ccc3cccnc3c2O)c1 (centres undefined) | inactive | > 100 µM | 31.1 µM
O=C(Nc1ccccc1)NN(C(=O)CCl)c1ccccc1 | 16.7 µM | 20.1 µM | 13.3 µM
O=Nc1c(O)ccc2cc(S(=O)(=O)O)ccc12 | 11.7 µM | 9.17 µM | 14.2 µM
COc1ccccc1NC(=S)NC1CCCCCCCCCCC1 | inactive | 31.2 µM | 42.3 µM
Cc1ccc(S(=O)(=O)N(C)C)cc1NC(=O)c1cncc(Br)c1 | inactive | 47.7 µM | 8.59 µM
CCCCNc1nc(=S)n(-c2ccccc2)c(C)c1C(C)=O | 17.3 µM | 22 µM | 12.6 µM
CN(CC(=O)Nc1ccc(Cl)c(C(F)(F)F)c1)C(=O)c1cc(-c2ccncc2)nc2ccccc12 | 16.1 µM | 16.2 µM | 15.9 µM
O=[N+]([O-])c1cc(Cl)cc(/C=N\Nc2ccccn2)c1O | inactive | 1.39 µM | > 100 µM
CN(C)CCCN(C(=O)c1ccc(C(=O)c2ccccc2)cc1)c1nc2cc3c(cc2s1)OCO3 | 16 µM | 18.8 µM | 13.3 µM
Cc1cc(Cl)n2ncc(-c3ccccc3)c2n1 | inactive | 40.1 µM | > 100 µM
COc1ccc2nc3n(c(=O)c2c1)-c1cc2ccccc2cc1C(=O)NC3Cc1ccc(O)cc1 (centres undefined) | 17.5 µM | 21.2 µM | 13.9 µM

Compound | IC50 (PEG-3 [1]) | IC50 (PEG-3 [2]; [3]) | IC50 (PEG-3 [2]; [4])
COc1ccc2c(c1)C=C([C@@H]1C[C@H]3CN(c4ccccc4)C(=O)[C@]34CCCN14)CO2 | > 100 µM (inactive) | > 100 µM | > 100 µM
Cc1ccc2sc(N(CCCN(C)C)C(=O)c3ccc(S(=O)(=O)N(C)Cc4ccccc4)cc3)nc2c1C | 13.7 µM | 19 µM | 8.42 µM
CCC1CCCCN1S(=O)(=O)c1ccc(C(=O)N(CCCN(C)C)c2nc3cc4c(cc3s2)OCO4)cc1 (centres undefined) | inactive | 21.9 µM | 49.9 µM
Cc1cc(C)c2nc(N(CCCN(C)C)C(=O)c3ccc(S(=O)(=O)N4CCCCCC4)cc3)sc2c1 | 20 µM | 24.3 µM | 15.6 µM
O=C(Nc1cccc(S(=O)(=O)N2CCOCC2)c1)c1ccc2c(=O)n3c(nc2c1)CCCCC3 | inactive | 25.3 µM | 43.1 µM
COCC(C)n1c(C)cc(C(=O)COC(=O)c2cccn2C)c1C (centres undefined) | inactive | 32.8 µM | > 100 µM
CC(C)c1ccc(-c2nc3ccccc3s2)cc1 | inactive | 14 µM | 40.2 µM
CCOC(=O)c1c(NC(C)=O)sc2c(OCC(O)CNC(C)(C)C)c(Br)ccc12 (centres undefined) | 13.6 µM | 18 µM | 9.14 µM
COc1ccc(-c2sc3ccccc3c2-c2ccc(OCCN3CCCCC3)cc2)cc1 | inactive | 20.9 µM | 20.2 µM
OC[C@@H]1[C@@H](c2ccc(Cl)cc2)C(c2cccc(Cl)c2)=NN1c1ccccc1 | inactive | 30.5 µM | 16.4 µM
O=Cc1cn(Cc2ccc(Br)cc2)c2ccccc12 | inactive | 43.8 µM | > 100 µM
OCCN1CCN(C2CCC(c3ccc(F)cc3)c3ccc(F)cc32)CC1 (centres undefined) | inactive | 20.4 µM | 23 µM
CC(C)n1nc(C(=O)Oc2cc(Cl)ccc2Cl)c2ccccc2c1=O | inactive | 65.8 µM | > 100 µM
CCn1c2ccccc2c2cc(NC(=O)C(C)OC(=O)c3ccc(NC(=O)CC#N)cc3)ccc21 (centres undefined) | inactive | 41.9 µM | 39.1 µM
COCOCCn1cc(CN2CCS(=O)(=O)N(Cc3ccc(-c4ccc(Cl)c(Cl)c4)cc3)C(C(C)C)C2=O)nn1 (centres undefined) | inactive | 34.9 µM | 18 µM
CCOc1cc(/C=N/Nc2nc(-c3cccc(S(=O)(=O)N4CCCC4)c3)cs2)ccc1O | inactive | 22.3 µM | 60.1 µM
